# Earlier results, collected in patent publication US8476466B2 (priority 2008, dated 2013).
# Test system: mice
# Conditions: mouse, in vivo
compound,measurement,value
arsenic acid,"50% lethal dose (LD50, in mice)",14 to 18 mg/kg
C[As+](C)(C)CC(=O)[O-] [arsenobetaine],"50% lethal dose (LD50, in mice)",10000 mg/kg
